The source of these data is patent US20030017483A1, “Modulation of molecular interaction sites on RNA and other biomolecules” (priority 1998, published 2003).

pIC50, pKd: −log10 of the molar value. ≈ marks a conversion by molar mass, not a printed value. Like-named read-outs stand apart in the source and are kept apart here.

For data set [1], the system named is TAR RNA interaction with tat peptide. In words: disruption of TAR RNA interaction with tat peptide. The class given is binding, HIV.
Data set [2] deals with luciferase mRNA containing the TAR RNA structure in the 5′-UTR. In words: wheat germ lysate translation of luciferase mRNA containing TAR RNA structure. The class given is biochemical, HIV. The note with it: luciferase mRNA with TAR RNA structure in the 5′-UTR, read-out: concentration reducing translation by 50%. An excerpt: It is believed that stabilization of mRNA structures near the 5′-cap also could be effected by specific “small” molecules, and that such binding would reduce the translational efficiency of the mRNA. To test this hypothesis, a plasmid was constructed containing the luciferase message behind a 5′-UTR containing a 27-mer RNA construct of the HIV TAR stem-loop bulge whose structure had been determined by NMR. The resulting mRNA could be expressed and capped in a wheat germ lysate translation system supplemented with T7 polymerase following addition of m^7G to the lysate (see, FIG. 38A). Insertion of a 9-base leader before the TAR structure (HIVluc+9) enhanced the translational efficiency, presumably by allowing the pre-initiation complex to form. The helicase activity associated with the pre-initiation complex can transiently melt out the TAR RNA structure, and the message is translated (see, FIG. 38A).

The test system of data set [3] is luciferase mRNA (control luc+9). In words: wheat germ lysate translation of control luciferase mRNA. The class given is biochemical. Conditions: control mRNA without TAR. An excerpt: It is believed that stabilization of mRNA structures near the 5′-cap also could be effected by specific “small” molecules, and that such binding would reduce the translational efficiency of the mRNA. To test this hypothesis, a plasmid was constructed containing the luciferase message behind a 5′-UTR containing a 27-mer RNA construct of the HIV TAR stem-loop bulge whose structure had been determined by NMR.

A further data set has as its system TAR. The note with it: in words, FIG. 36.
A further data set deals with E. coli. In words: high throughput screening assay for antibacterial activity. The class given is cell-based. Conditions: Escherichia coli; crude compounds, against E. coli; read-out: minimum inhibitory concentrations (MIC's). An excerpt:
This activity was verified by manual solution synthesis of analytically pure material as described in Example 6 above, which had identical activity.

The target of data set [4] is 27-mer model RNA sequence of the 16S A-site. In words: MASS assay (mass spectrometry binding affinity). The note with it: 27-mer model RNA of the 16S A-site. An excerpt: One mass spectrometric method which is particularly useful when combined with the techniques of the foregoing commonly owned inventions provides the determination of specificity and affinity of ligands to RNA targets. MASS (multi target affinity/specificity screening) techniques can provide high throughput screening methods to analyze the specificity and affinity of ligands to molecular interaction sites of nucleic acids, especially RNA. […]
Binding site information can be obtained by comparing the gas phase fragmentation patterns of the free and complexed target while relative binding constants are derived from the relative abundance of complexes using a complex with a known Kd as an internal standard. With knowledge of the specificity and affinity of ligands to the molecular interaction site of a target RNA, the desired lead or ultimate compound for modulation of the RNA can be determined.
The compounds are screened for binding affinity using MASS or conventional high-throughput functional screens. […] The MASS assay was performed with the 27-mer model RNA sequence of the 16S A-site whose NMR structure has been determined. […]

The subject of the next data set is luciferase reporter. In words: transcription/translation assay based on expression of a luciferase plasmid. The format is biochemical. The method, then:
The compounds are screened for binding affinity using MASS or conventional high-throughput functional screens. The best scoring compounds from docking a 256-member library against the 16S A-site ribosomal RNA structure are shown in the table below. The MASS assay was performed with the 27-mer model RNA sequence of the 16S A-site whose NMR structure has been determined. The transcription/translation assay was based on expression of a luciferase plasmid.

For data set [5], the target named is 27-mer RNA containing the A-site of the 16S rRNA. The note with it: cited from earlier work.
Data set [6] concerns 23S rRNA fragment / L11 protein fragment. In words: L11/thiostrepton SPA assay. The format is binding. Conditions: positive control, RNA under destabilizing conditions. An excerpt: The mode of action of thiostrepton appears to be to stabilize a region of the 23S rRNA and by doing so prevent a structural transition in the L11 protein. Among the many assays that look at RNA/protein interactions, an SPA assay has been designed to look for small molecules that could be effective as thiostrepton ‘like’ agents. This assay uses a radiolabeled small fragment of the 23S rRNA, a biotinylated 75 amino acid fragment of the L11 protein that contains the 23S rRNA binding domain and thiostrepton. The folding conditions of the secondary and tertiary structures of the 23S rRNA fragment have been examined as have the binding conditions of the L11 fragment to the 23S rRNA. The L11-thiostrepton assay has been optimized so that the 23S rRNA fragment is in an unfolded state prior to the addition of compounds. Addition of the L11 fragment to this unfolded RNA results in no detectable binding interaction. The high throughput assay is run by mixing the 23S rRNA fragment, under destabilizing conditions, with compounds of interest, incubating this mixture, and then adding the L11 fragment. Streptavidin-coated SPA beads are added for binding detection. Thiostrepton is used as a positive control.

For data set [7] the following is noted: cited from earlier work.

Turning to `CNc1ccc(NCCO)c2c1C(=O)c1ccccc1C2=O` [ACD 00001199], the “concentration at which the interaction of TAR RNA with tat peptide is disrupted” value in [1] came out at 1 µM. The pIC50 in data set [2] is 4.30. In data set [3], the “inhibition of translation of the luciferase mRNA” value is listed as “some inhibition of translation at very high concentrations”. The IC50 values entry with TAR is given as “low”.
`O=C(NO)[C@@H](Cc1ccc2ccccc2c1)NS(=O)(=O)c1ccc2ccccc2c1` [Compound 5-n-ii, (2R)-3-(2-naphthyl)-2-((2-naphthylsulfonyl)amino)propanehydroxamic Acid]: in the data set with E. coli, the MIC was 0.7 to 1.5 µM (≈ 0.294 to 0.631 µg/mL).
Consider `O=C(NO)[C@@H](Cc1ccc2ccccc2c1)NS(=O)(=O)c1ccc(Br)cc1` [Compound 5-n-vi, (2R)-2-(((4-bromophenyl)sulfonyl)amino)-3-(2-naphthyl)propanehydroxamic Acid], for which the MIC with E. coli was 3 to 6 µM (≈ 1.35 to 2.7 µg/mL).
As for `NC[C@@H]1O[C@H](O[C@H]2[C@@H](O)[C@H](O[C@@H]3[C@@H](O)[C@H](N)C[C@H](N)[C@H]3O[C@H]3O[C@H](CO)[C@@H](O)[C@H](O)[C@H]3N)O[C@@H]2CO)[C@H](N)[C@@H](O)[C@@H]1O` [Paromomycin], the pKd is 6.30 in data set [4]; 6.70 in data set [5] (27-mer RNA containing the A-site of the 16S rRNA, known value, read-out: Kd, binding to the unpaired adenosine residues); approximately 6.00 in data set [5] (standard, known from other experiments or literature, read-out: binding affinity for a test 27-mer RNA). Further, the “Activity: Inhibition of protein synthesis in transcription/translation assay for luciferase reporter” value with luciferase reporter is 0.3 µM.
Regarding `C=C(NC(=O)C(=C)NC(=O)c1csc(C2=N[C@@H]3c4csc(n4)[C@H]4NC(=O)c5csc(n5)[C@H]([C@](C)(O)[C@@H](C)O)NC(=O)[C@H]5CSC(=N5)/C(=C/C)NC(=O)[C@H]([C@@H](C)O)NC(=O)c5csc(n5)[C@]3(CC2)NC(=O)[C@H](C)NC(=O)C(=C)NC(=O)[C@H](C)NC(=O)[C@H]([C@@H](C)CC)N[C@@H]2C=Cc3c([C@H](C)O)cc(nc3[C@H]2O)C(=O)O[C@@H]4C)n1)C(N)=O` [thiostrepton], the “L11 fragment binding to 23S rRNA fragment (SPA signal)” value in data set [6] is “allows the L11 fragment to bind leading to the generation of a signal”. Moreover, the solubility entry in [7] is listed as “very poor solubility”.
